A short description of data set [1]: Evaluation of solubility: concentration of hardly soluble polyphenol dissolved in ion-exchanged water, quantified by HPLC. It counts as physicochemical. As to conditions: sample added to ion-exchanged water at 1 g/L, shaken at 25° C. for 5 minutes, filtered 0.8 μm. As to the method:
Hardly soluble polyphenols were each quantified by a gradient method using a high-performance liquid chromatograph manufactured by Hitachi, Ltd. with a column Cadenza CD-C18 (4.6 mmφ×150 mm, 3 μm) manufactured by Imtakt Corporation at a column temperature of 40° C.
A mobile phase, solution A, was 0.05 mol/L acetic acid aqueous solution, and the other mobile phase, solution B, was acetonitrile. Flow rate was 1.0 mL/min. Gradient conditions are shown below.
In addition, ellagic acid was quantified using the same device except that only gradient conditions were set as shown below.
The sample injection volume was 10 μL, and quantification was carried out on the basis of an absorbance at a wavelength of 254 nm.
A sample was added to ion-exchanged water at 1 g/L, and the resultant was shaken at 25° C. for 5 minutes. After that, the resultant was filtered with a cellulose acetate filter having a pore size of 0.8 μm, and the concentration of a hardly soluble polyphenol dissolved was measured by the above-mentioned quantification method.

For data set [2] the following is noted: cited from earlier work.
Data set [3] can be described thus: X-ray diffraction analysis: crystallinity degree of ellagic acid. It counts as physicochemical. Conditions: powder X-ray diffraction, FIG. 1 to FIG. 3. As to the method: The crystallinity degree of the hardly soluble polyphenol may be calculated by the following method. First, diffraction intensity values determined by an X-ray diffraction method are subjected to peak separation into a crystalline diffraction line and an amorphous halo through profile fitting without considering effects of incoherent scattering, a lattice defect, and the like. Next, the crystallinity degree of a hardly soluble polyphenol is calculated by the following calculation equation (2) from the resultant integrated intensities of the respective peaks: Crystallinity degree (%) of hardly soluble polyphenol=[ΣIα/(ΣIα+ΣIam)]×100 (2) where ΣIα represents a sum of integrated intensities of respective peaks in a crystalline diffraction line, and ΣIam represents a sum of integrated intensities of respective peaks in a diffraction line of an amorphous part.
An X-ray diffraction intensity was measured using “Mini Flex II” manufactured by Rigaku Corporation under the conditions of: an X-ray source of Cu/Kα-radiation; a tube voltage of 30 kV; a tube current of 15 mA; a measurement range of from 5° to 40° in terms of a diffraction angle; and an X-ray scan speed of 10°/min. A sample for measurement was prepared by compressing a pellet having an area of 400 mm^2 and a thickness of 0.5 mm.

≈ marks a conversion by molar mass, not a printed value.

`Oc1ccc(C=Cc2cc(O)cc(O)c2)cc1` [Comparative Example 11, Resveratrol]: the “Amount of resveratrol dissolved” value in data set [1] was 0.03 g/L.
In the case of `c1cc2c(cc1[C@H]1OC[C@H]3[C@@H]1CO[C@@H]3c1ccc3c(c1)OCO3)OCO2` [Comparative Example 9, Sesamin], the “Amount of sesamin dissolved” value in data set [1] stood at 0.0001 g/L.
Regarding `COc1ccc(-c2cc(=O)c3c(OC)c(OC)c(OC)c(OC)c3o2)cc1OC` [Comparative Example 8, Nobiletin], the “Amount of nobiletin dissolved” value in data set [1] is 0.007 g/L.
Regarding `O=c1oc2c(O)c(O)cc3c(=O)oc4c(O)c(O)cc1c4c23` [Comparative Example 1, Ellagic acid], the “solubility in water (25° C.)” value in data set [2] was 5 µg/mL (≈ 16.5 µM). Further, in data set [3], the “crystallinity degree of ellagic acid” value amounted to 87%. In data set [1], the “Amount of ellagic acid dissolved” value came to 0.0053 g/L.
For the compound `O.O.O=c1c(O)c(-c2ccc(O)c(O)c2)oc2cc(O)cc(O)c12` [Comparative Example 5, Quercetin dihydrate], the “Amount of quercetin dissolved” value in data set [1] is recorded as 0.005 g/L.
As for `COc1cc(/C=C/C(=O)CC(=O)/C=C/c2ccc(O)c(OC)c2)ccc1O` [Comparative Example 7, Curcumin], in data set [1], the “Amount of curcumin dissolved” value came out at 0.001 g/L.
With `O=C1C[C@@H](c2ccc(O)cc2)Oc2cc(O)cc(O)c21` [Comparative Example 12, Naringenin], the “Amount of naringenin dissolved” value in data set [1] came to 0.008 g/L.

(Values after patent US10894058B2, “Method for producing solid dispersion containing hardly soluble polyphenol” (KAO CORPORATION, priority 2014, dated 2021).)
